Source: US9857356B2, “Muscle chips and methods of use thereof” (President and Fellows of Harvard College, priority 2011, dated 2018)
Bridges are numbered along the chain shown (N, C = ends). Where no end group is shown, it is not given here.

How the values were obtained:
[1] = system: Human umbilical artery vascular smooth muscle; assay: Vascular muscular thin film (vMTF) contractility assay, films on posts; format: cell-based
Procedure: Human umbilical artery vascular smooth muscle was seeded on thin films at 300 cells/mm^2 in complete M199 medium (M199 supplemented with 10% fetal bovine serum (FBS), penicillin, streptomycin, L-glutamine, glucose and vitamin B12). The tissue was cultured in complete M199 for 48 hours, with a single media change at 24 hours. After 48 hours, the cells were serum starved for an additional 48 hours (M199 supplemented with penicillin, streptomycin, L-glutamine, glucose and vitamin B12, but no FBS).
Muscle thin films were transferred to fresh Tyrode's solution in the testing dish (FIG. 1), which is maintained at 37° C. by a peltier heating system. Films were adhered to Teflon coated posts (FIG. 3) by moving them into close contact using tweezers. The films were imaged using a stereomicroscope outfitted with fluorescent imaging capability. Both brightfield and fluorescent images were captured every thirty seconds. In the experiment shown in FIG. […]
Quantification and analysis of thin film motion was performed using ImageJ (NIH) and MATLAB software. Thresholded fluorescent images (FIG. 4B) were fit to circles whose radii of curvature could be measured (FIG. 4C). Using elasticity theory, the contraction stress necessary to induce the measured changes in curvature were calculated (FIG. 4D). […]

[2] = system: vascular smooth muscle cells; assay: Horizontal vascular smooth muscle thin film (hMTF) contractility assay; format: cell-based
Procedure: FIG. 12 contrasts the use of fluorescent microscopy and the use of brightfield stereo microscopy of vascular smooth muscle (VSM) horizontal MTFs during an assay of the invention as described in Example 5. The top row depicts fluorescent microscopy photographs of VSM horizontal MTFs comprising fluorescent beads embedded in the PDMS film. […] (A) Photographs taken 5 minutes after the start of the experiment, the films are slightly bent up from the glass due to the initial contraction of VSM. […] Polydimethylsiloxane (PDMS) thin film substrates were fabricated via a multi-step spin coating process. Poly(N-isopropylacrylamide) ([…]) (Polysciences, Inc.) was dissolved at 10 wt % in 99.4% 1-butanol (w/v) and was then deposited as a thin layer onto the open glass islands, then the top protective film layer was peeled off. Sylgard 184 (Dow Corning) polydimethylsiloxane (PDMS) elastomer was mixed at a 10:1 base to curing agent ratio doped with 0.1% by volume […] Fluorospheres (Invitrogen), and spun coated on top of the […] coated glass cover slip which was then cured. The next day, the bottom protective film was peeled off. A mask, printed on transparencies was used to cut the glass into desired shapes. MTFs were released from the cover slip once the cells have formed the appropriate 2D microstructure. The MTFs were either cut out by hand, cut out using a robotic system, pre-cut prior to cell incubation. In one specific example of, e.g., horizontal MTF production, the middle section was cut out, so that only six rectangles remained in the area that had […]). Once the Tyrode's solution cools below 35° C., the […] layer transitions from a hydrophobic state to a hydrophilic state and begins to dissolve. As the […] dissolved the middle section cutout was peeled off the substrate with a pair of tweezers. Once the […] dissolves completely, the contraction of the myocytes pulls the MTF (the remaining rectangles) free from the rigid substrate. In the case of the horizontal MTF, rectangles remain with one end partially fixed to the substrate. Actuation and observation of multiple MTFs was carried out in a physiologic solution (e.g., normal Tyrodes solution). The horizontal […]) fabricated with vascular smooth muscle cells in the presence of fluorescent beads were treated with the endothelium-produced vasoconstrictor endothelin-1 (ET-1) followed by the rho-kinase inhibitor HA-1077. […] Quantification and analysis of thin film motion was performed using ImageJ (NIH) and MATLAB software. From the thresholded fluorescent images the length of the projection of the film on the horizontal plane was tracked throughout the contraction and the radius of curvature calculated. Using elasticity theory, the contraction stress necessary to induce the measured changes in curvature were calculated.

Compound	stress after treatment (residual stress) ([1]; vMTFs, 100 mM HA-1077 following ET-1) [kPa]	effect on VSM horizontal MTFs (FIG. 12C) ([2]; 30 minutes after addition of the rho-kinase inhibitor)	change in radius of curvature ([2]; hMTFs, 100 mM HA-1077 following ET-1)	increase in cell generated stress ([1]; vMTFs stimulated with 50 nM ET-1 at time 0) [kPa]	effect on VSM horizontal MTFs (FIG. 12B) ([2]; 20 minutes after addition of the vasoconstrictor)	change in radius of curvature ([2]; hMTFs stimulated with 50 nM ET-1 at time 0)
O=S(=O)(c1cccc2cnccc12)N1CCCNCC1 [HA-1077, fasudil]	3.1±0.8	causes the VSM to completely relax	rapid increase in radius of curvature	–	–	–
endothelin-1 (CSCSSLMDKECVYFCHLDIIW; disulfide 1-15, 3-11; ends not checked; UniProt P05305 53-73, looked up) [ET-1, endothelium-produced vasoconstrictor]	–	–	–	5.06±0.75	causes the VSM to contract	decrease in their radii of curvature
